According to PMC12245127, “Cancer Specific CAIX‐Targeting Supramolecular Lysosome‐Targeting Chimeras (Supra‐LYTAC) for Targeted Protein Degradation” (Advanced Science, 2025):

Assays:
Assay type in all cases: cell-based
HeLa = test: Endocytosis pathway analysis with inhibitors; conditions: inhibitor pre-incubated 30 min (400 mM sucrose, 30 μM EIPA), then 100 μM Py-FFK-Az, 5 μM Py-FFK-Biotin, 400 nM streptavidin-FITC 3 h, flow cytometry, n = 3
Description: We next examined the cellular localization of Supra‐LYTAC using CLSM. […] To understand the lysosomal trafficking mechanism, we conducted inhibitor studies. […]
fluorometer (F-7000, Hitachi). The ratio for I1 band and I3 band was plotted to obtain CAC […]
S.1.12. Transmission electron microscopy study. To confirm the peptide self-assembly nanostructures, 50 μM of peptide solution in water was prepared. Then, 8 μL was dropped onto a copper grid. After the droplet is fully dried, it was repeated once more. After that, negative staining was achieved using 2 wt% uranyl acetate solution for 10 min in RT. After washing using DI water, the self-assembly morphology was visualized using JEM-1400 by JEOL and […]
To visualize peptide-protein nanocomplex, streptavidin stock solution was added into the solution consisting of 50 μM peptide solution (mixture of Py-FFK-Az and Py-FFK-Biotin in 20:1 ratio) to obtain 400 nM and 10 μM solutions. Then, TEM sample was prepared with the same protocol of peptide self-assembly visualization.
S.1.13. Circular dichroism spectroscopy. 100 μM peptide solution was initially prepared.
The solution was transferred into quartz cell with 1 mm path length (Hellma), and CD spectrum was recorded using CD spectrometer (J-815, JASCO) under the flow of nitrogen.
S.1.14. FT-IR spectroscopy. 1 mM peptide solution was prepared for FT-IR spectroscopy.
The solution was measured using L1600300 Spectrum TWO LiTa FT-IR spectrometer by […]
S.1.15. Cell culture. HeLa, 4T1, and NIH/3T3 were supplied from Korean Cell Line Bank. […]
After growing for 24 h, Py-FFK-Az, Py-FFK-Biotin, Py-GGK-Az, Py-GGK-Biotin was treated with different concentrations. […] After 4 h incubation, MTT formazan was solubilized by SDS solution, and monitored using SpectraMax M5e Multi Mode Microplate Reader by Molecular Devices.
S.1.17. […] After that, the cells were washed and analyzed using FACSverse (Becton Dickinson And Company).
S.1.18. […] After that, the cells were washed and analyzed using confocal laser scanning microscopy (LSM780 and 880 by ZEISS). […]

PD‐L1 [1] = biological target: T1, PD‐L1 (Homo sapiens, UniProt Q9NZQ7); test: Western blot analysis for PD-L1 degradation, HeLa; conditions: 24 h, 1:1 ratio (100 μM each)
T1 construct: endogenous in cells; host or cells: HeLa
Description: (§1) We next evaluated PD‐L1 degradation using Western blot (WB) analysis. […] Initially, we verified BMS‐conjugated peptides were non‐toxic by MTT assay (Figure S37, Supporting Information). We then assessed PD‐L1 degradation in HeLa cells after 24‐h treatment with 100 µM Py‐FFK‐Az and varying concentrations of Py‐FFK‐BMS. […] To further assess the effect for Py‐FFK‐Az, we conducted WB analysis with 100 µM Py‐FFK‐BMS at varying concentration for Py‐FFK‐Az. […] PD‐L1 degradation was inhibited by co‐treatment with CAIX inhibitor, confirming the role of CAIX‐mediated endocytosis in lysosomal uptake (Figure S39, Supporting Information). To further validate lysosome‐dependent protein degradation, we conducted WB analysis with chloroquine, a lysosomal inhibitor. […] Furthermore, PD‐L1 fluorescence was restored when chloroquine was co‐administered with the 1:1 Py‐FFK‐Az:Py‐FFK‐BMS mixture, confirming lysosomal involvement in PD‐L1 degradation. […]
(§2) μM Py-FFK-Az and 5μM Py-FFK-Biotin was co-incubated with 400 nM streptavidin-FITC. […]
(§3) as counterstaining agent. IF signals were analyzed using confocal laser scanning microscopy […]
(§4) S.1.22. […] Tumor growth was monitored using the digital caliper. We calculated the tumor volume using the formula [volume = (tumor length) × (tumor width)2/2]. […] The tumor size and body weight were measured and […]
(§5) S.1.23. […] All the data are expressed as mean ± standard deviation (SD). […]

PD‐L1 [2] = biological target: T1, PD‐L1; test: Immunofluorescence analysis of PD-L1, HeLa; conditions: 24 h
Description: as §1, §2, §3, §4, §5

T1 sequence (Q9NZQ7 19-290): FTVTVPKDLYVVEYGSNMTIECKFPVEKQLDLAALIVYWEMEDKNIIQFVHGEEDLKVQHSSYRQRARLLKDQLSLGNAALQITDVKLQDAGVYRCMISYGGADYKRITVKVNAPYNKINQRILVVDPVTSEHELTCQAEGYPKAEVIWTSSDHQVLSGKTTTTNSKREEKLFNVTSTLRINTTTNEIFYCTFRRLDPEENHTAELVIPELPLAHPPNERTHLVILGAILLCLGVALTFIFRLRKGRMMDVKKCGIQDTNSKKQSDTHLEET

effect of inhibitor co-treatment on PD-L1 degradation by Py-FFK-Az and Py-FFK-BMS (WB) (PD‐L1 [1]) | PD-L1 immunofluorescence on chloroquine co-administration with 1:1 Py-FFK-Az:Py-FFK-BMS (PD‐L1 [2]) | SMILES | effect of inhibitor on POI uptake by Supra-LYTAC (HeLa)
inhibited |  | CC(=O)Nc1nnc(S(N)(=O)=O)s1 [acetazolamide] | significantly reduced
 |  | CCN(c1nc(N)c(C(=O)NC(=N)N)nc1Cl)C(C)C [EIPA] | no effect
significantly reduced PD‐L1 degradation | restored | CCN(CC)CCCC(C)Nc1ccnc2cc(Cl)ccc12 (stereo not drawn) [chloroquine] | 
 |  | OC[C@H]1O[C@@](CO)(O[C@H]2O[C@H](CO)[C@@H](O)[C@H](O)[C@H]2O)[C@@H](O)[C@@H]1O [sucrose] | substantially reduced
